Several values for one entry are separate records, joined by “and”; a condition that tells them apart may be missing. Identical values can stand only once.
System: CqsS-mKATE2
Experiment: Qrr4 regulation of CqsS-mKATE2 translational fusion, anhydrous tetracycline-inducible qrr4 (S4 Fig)
Type: cell-based, E. coli
From the text: We examined whether Qrr regulation of CqsS is direct or indirect using a CqsS-mKATE2 translational fusion in E. coli expressing inducible qrr4. We reasoned that, if CqsS production is controlled by Qrr4, repression of CqsS-mKATE2 should occur when Qrr4 is induced. We verified that our system works by showing that inducible Qrr4 is capable of repressing a previously-identified direct target, VCA0107-GFP [24]. However, no repression of CqsS-mKATE2 occurred following induction of Qrr4 (S4 Fig).
To assay qrr4 regulation of cqsS, the relative fluorescence of translational fusions (VCA0107B-GFP and CqsS-mKATE2) was measured in E. coli BWR1. E. coli carrying one of these plasmids also contained either an empty plasmid (pZA31) or pZA31 carrying anhydrous tetracycline-inducible qrr4. Qrr4-mediated repression of CqsS-mKATE2 was assessed. VCA0107-GFP is a known Qrr4-repressed target and was used as a positive control to show the system was functional. Overnight cultures were diluted 1:50 into fresh medium and aliquotted in triplicate into 96 well plates. […] OD600 and fluorescence were assessed using an Envision 2103 Multilabel Reader (Perkin Elmer).
Supplementary file pgen.1006826.s008.tiff: S4 Fig Qrr4 indirectly regulates cqsS. Fluorescence from plasmid-encoded VCA0107-GFP (circles) and CqsS-mKATE2 (squares) was measured in E. coli. Either an empty vector (pZA31-lucNB, black) or pZA31-lucNB carrying tetracycline-inducible qrr4 (pYS245, red) was present in each strain. VCA0107 encodes a type VI secretion system component that is regulated by Qrr4. Data represent two experiments conducted in triplicate. Error bars represent standard errors of the mean. (TIFF) Click here for additional data file.

Cc1c2c(c(O)c3c(O)cccc13)C(=O)[C@]1(O)C(=O)C(C(N)=O)=C(O)[C@@H](N(C)C)[C@@H]1C2 [aTc]
Relative reporter signal, experimental averages (pCqsS Qrr4, aTc 0.0976562 ng/ml (normalization point)): 1 | Relative reporter signal, experimental averages (pCqsS Qrr4, aTc 0.195312 ng/ml, normalized to 0.0976562 ng/ml): 0.9161 and 1.022 and 1.111 | Relative reporter signal, experimental averages (pCqsS Qrr4, aTc 0.390625 ng/ml, normalized to 0.0976562 ng/ml): 0.9447 and 1.099 and 1.082 | Relative reporter signal, experimental averages (pCqsS Qrr4, aTc 0.78125 ng/ml, normalized to 0.0976562 ng/ml): 0.9451 and 1.129 and 1.056 | Relative reporter signal, experimental averages (pCqsS Qrr4, aTc 1.5625 ng/ml, normalized to 0.0976562 ng/ml): 1.068 and 1.16 and 0.9801 | Relative reporter signal, single replicates (pCqsS Qrr4, aTc 3.125 ng/ml): 1.44 and 0.9097 and 1.127 and 0.956 | Relative reporter signal, experimental averages (pCqsS Qrr4, aTc 3.125 ng/ml, normalized to 0.0976562 ng/ml): 1.078 and 1.159 and 0.9843 | Relative reporter signal, single replicates (pCqsS Qrr4, aTc 6.25 ng/ml): 1.264 and 1.158 and 1.22 and 0.881 and 1.097 and 1.0668 and 1.093 and 0.9121 and 1.019 | Relative reporter signal, experimental averages (pCqsS Qrr4, aTc 6.25 ng/ml, normalized to 0.0976562 ng/ml): 1.008 and 1.214 and 1.015 | Relative reporter signal, single replicates (pCqsS Qrr4, aTc 12.5 ng/ml): 1.4702 and 1.295 and 1.361 and 0.8302 and 0.9914 and 0.8969 and 1.079 and 1.208 and 0.9918 | Relative reporter signal, experimental averages (pCqsS Qrr4, aTc 12.5 ng/ml, normalized to 0.0976562 ng/ml): 1.093 and 1.376 and 0.9062 | Relative reporter signal, single replicates (pCqsS Qrr4, aTc 25 ng/ml): 1.547 and 1.293 and 1.267 and 0.9302 and 0.911 and 0.8369 and 1.15 and 1.125 and 1.107 | Relative reporter signal, experimental averages (pCqsS Qrr4, aTc 25 ng/ml, normalized to 0.0976562 ng/ml): 1.127 and 1.369 and 0.8927 | Relative reporter signal, single replicates (pCqsS Qrr4, aTc 50 ng/ml): 1.539 and 1.282 and 1.3008 and 0.9601 and 0.9046 and 0.8156 and 1.287 and 1.24 and 0.9722 | Relative reporter signal, experimental averages (pCqsS Qrr4, aTc 50 ng/ml, normalized to 0.0976562 ng/ml): 1.167 and 1.374 and 0.8934 | Relative reporter signal, single replicates (pCqsS Qrr4, aTc 100 ng/ml): 1.525 and 1.187 and 1.2288 and 1.039 and 0.9388 and 0.8346 and 1.105 and 1.41 and 1.043 | Relative reporter signal, experimental averages (pCqsS Qrr4, aTc 100 ng/ml, normalized to 0.0976562 ng/ml): 1.186 and 1.313 and 0.9374 | Relative reporter signal, single replicates (pCqsS Qrr4, aTc 200 ng/ml): 1.816 and 1.134 and 1.357 and 1.246 and 1.145 and 0.8992 and 1.196 and 1.432 and 1.656 | Relative reporter signal, experimental averages (pCqsS Qrr4, aTc 200 ng/ml, normalized to 0.0976562 ng/ml): 1.428 and 1.436 and 1.096 | Relative reporter signal, experimental averages (pCqsS vector, aTc 0.0976562 ng/ml (normalization point)): 1 | Relative reporter signal, experimental averages (pCqsS vector, aTc 0.195312 ng/ml, normalized to 0.0976562 ng/ml): 1.035 and 0.9136 | Relative reporter signal, experimental averages (pCqsS vector, aTc 0.390625 ng/ml, normalized to 0.0976562 ng/ml): 1.0872 and 0.9606 | Relative reporter signal, experimental averages (pCqsS vector, aTc 0.78125 ng/ml, normalized to 0.0976562 ng/ml): 0.9727 and 0.9156 | Relative reporter signal, experimental averages (pCqsS vector, aTc 1.5625 ng/ml, normalized to 0.0976562 ng/ml): 1.033 and 0.9687 | Relative reporter signal, single replicates (pCqsS vector, aTc 3.125 ng/ml): 1.095 and 1.006 and 1.033 and 1.049 and 1.037 and 0.9455 | Relative reporter signal, experimental averages (pCqsS vector, aTc 3.125 ng/ml, normalized to 0.0976562 ng/ml): 1.045 and 1.01 | Relative reporter signal, single replicates (pCqsS vector, aTc 6.25 ng/ml): 1.025 and 0.9971 and 1.015 and 1.078 and 0.9309 and 0.9316 | Relative reporter signal, experimental averages (pCqsS vector, aTc 6.25 ng/ml, normalized to 0.0976562 ng/ml): 1.0121 and 0.9801 | Relative reporter signal, single replicates (pCqsS vector, aTc 12.5 ng/ml): 1 and 0.9215 and 1.059 and 1.011 and 1.014 and 0.8976 | Relative reporter signal, experimental averages (pCqsS vector, aTc 12.5 ng/ml, normalized to 0.0976562 ng/ml): 0.9936 and 0.9741 | Relative reporter signal, single replicates (pCqsS vector, aTc 25 ng/ml): 0.9696 and 0.9738 and 0.9202 and 1.059 and 1.016 and 0.9126 | Relative reporter signal, experimental averages (pCqsS vector, aTc 25 ng/ml, normalized to 0.0976562 ng/ml): 0.9545 and 0.9958 | Relative reporter signal, single replicates (pCqsS vector, aTc 50 ng/ml): 0.9232 and 0.9361 and 1.0359 and 1.102 and 1.073 and 0.9182 | Relative reporter signal, experimental averages (pCqsS vector, aTc 50 ng/ml, normalized to 0.0976562 ng/ml): 0.965 and 1.031 | Relative reporter signal, single replicates (pCqsS vector, aTc 100 ng/ml): 0.9506 and 0.9792 and 0.9909 and 1.135 and 1.123 and 0.9303 | Relative reporter signal, experimental averages (pCqsS vector, aTc 100 ng/ml, normalized to 0.0976562 ng/ml): 0.9736 and 1.063 | Relative reporter signal, single replicates (pCqsS vector, aTc 200 ng/ml): 1.017 and 1.029 and 1.01 and 1.335 and 1.085 and 1.09 | Relative reporter signal, experimental averages (pCqsS vector, aTc 200 ng/ml, normalized to 0.0976562 ng/ml): 1.019 and 1.17

Source: PMC5467912, “Asymmetric regulation of quorum-sensing receptors drives autoinducer-specific gene expression programs in Vibrio cholerae” (PLoS Genetics, 2017)
